From patent US20230002352A1, “SULFONAMIDE DERIVATIVES AS CTPS1 INHIBITORS” (Step Pharma S.A.S., priority 2019, published 2023)
Read-outs that look alike come from different tables or passages of the source.

What was measured:
human CTPS1 = target: T1, human CTPS1 (Homo sapiens, UniProt P17812); experiment: Human CTPS1 enzyme inhibition (ADP-Glo Max assay); format: biochemical; settings: read-out: CTPS1 (Human CTPS1 Enzyme Inhibition data grouped by potency range, IC50)
T1 construct: purchased Proteros biostructures GmbH
T1 sequence (P17812 1-591): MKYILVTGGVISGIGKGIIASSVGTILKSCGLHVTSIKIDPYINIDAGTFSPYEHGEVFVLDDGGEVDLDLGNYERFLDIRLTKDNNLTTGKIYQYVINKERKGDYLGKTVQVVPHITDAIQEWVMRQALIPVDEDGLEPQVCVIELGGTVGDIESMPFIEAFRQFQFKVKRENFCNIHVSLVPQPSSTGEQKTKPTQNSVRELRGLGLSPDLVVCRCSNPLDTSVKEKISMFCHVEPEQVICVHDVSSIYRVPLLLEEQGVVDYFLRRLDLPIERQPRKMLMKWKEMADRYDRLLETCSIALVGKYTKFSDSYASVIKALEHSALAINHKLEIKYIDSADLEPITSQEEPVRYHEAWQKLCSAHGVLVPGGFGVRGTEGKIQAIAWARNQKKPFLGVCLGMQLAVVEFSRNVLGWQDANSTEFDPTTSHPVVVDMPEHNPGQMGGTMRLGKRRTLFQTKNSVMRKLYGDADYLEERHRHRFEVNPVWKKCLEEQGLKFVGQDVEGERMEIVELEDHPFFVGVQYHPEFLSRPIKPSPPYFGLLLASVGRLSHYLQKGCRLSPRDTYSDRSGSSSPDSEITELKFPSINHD
Summary of the method: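 Full-length FLAG-His-tagged human CTPS1 and compound were preincubated 10 min at 25 °C in 50 mM Tris pH 8.0, 10 mM MgCl2, 0.01% Tween-20, 2 mM L-cysteine. Substrate mix: ATP 0.31 mM, GTP 0.034 mM, UTP 0.48 mM, glutamine 0.186 mM; linear-phase reaction at 25 °C. ADP-Glo Max luminescence; IC50 from inhibition curve.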

human CTPS1 versus CTPS2 = experiment: Human CTPS1 versus CTPS2 selectivity assessment by RapidFire/MS analysis; format: biochemical
Summary of the method: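 Full-length human CTPS1 or CTPS2 was preincubated 10 min with compound in HEPES pH 8.0 at 25 °C. The 2× substrate mix was, for CTPS1, ATP 0.3, UTP 0.2, GTP 0.07 and glutamine 0.1 mM; for CTPS2, ATP 0.1, UTP 0.04, GTP 0.03 and glutamine 0.1 mM. The CTP/labelled-CTP ratio by RapidFire MS gave IC50, and selectivity was a fold ratio.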

IC50 (human CTPS1; Table 23, ADP-Glo Max assay) | SMILES | Selectivity (fold selectivity between CTPS1 and CTPS2) (human CTPS1 versus CTPS2; Table 26) | also measured
100 to 1000 nM | CC(C)Oc1cncc(-c2ccc(C(=O)NC(C)(C)c3cncc(NS(=O)(=O)C4CC4)n3)c(F)c2)n1 [Example P221] | + (2-30 fold (+)) | 
≤ 100 nM | CCOc1cncc(-c2ccc(NC(=O)C3(c4ccnc(NS(=O)(=O)C5CC5)n4)CCCC3)nc2)n1 [Example P136] | +++ (>60 fold (+++)) | 
 | CCOc1cncc(-c2ccc(NC(=O)C3(c4ccnc(NS(=O)(=O)C5CC5)n4)CCC4(CC3)OCCO4)nc2)n1 [Example P244, 8-(2-(cyclopropanesulfonamido)pyrimidin-4-yl)-N-(5-(6-ethoxypyrazin-2-yl)pyridin-2-yl)-1,4-dioxaspiro[4.5]decane-8-carboxamide] |  | IC50 (human CTPS1; Table 24, ADP-Glo Max assay): ≤ 100 nM; Selectivity (fold selectivity between CTPS1 and CTPS2) (human CTPS1 versus CTPS2; Table 27): +++ (>60 fold (+++))
≤ 100 nM | CCOc1cncc(-c2ccc(NC(=O)C(C)(C)c3ccnc(NS(=O)(=O)C4CC4)n3)nc2)n1 [Example P31] | +++ (>60 fold (+++)) | 
1000 to 10000 nM | CCOc1cncc(-c2ccc(NC(=O)C(C)(C)c3nc(NS(=O)(=O)C4CC4)ncc3C)cc2)n1 [Example P70] | + (2-30 fold (+)) | 
100 to 1000 nM | CCOc1cncc(-c2ccc(NC(=O)C(C)(C)c3nc(NS(=O)(=O)C4CC4)ncc3F)cc2)n1 [Example P68] | ++ (>30-60 fold (++)) | 
≤ 100 nM | CC(C)Oc1cncc(-c2ccc(NC(=O)Cc3ccnc(NS(=O)(=O)C4CC4)n3)c(F)c2)n1 [Example P12] | ++ (>30-60 fold (++)) | 
≤ 100 nM | CCOc1cncc(-c2ccc(NC(=O)C(CCOC)c3ccnc(NS(=O)(=O)C4CC4)n3)c(F)c2)n1 (stereo not shown) [Example P146] | +++ (>60 fold (+++)) | 
≤ 100 nM | CCOc1cncc(-c2ccc(NC(=O)C(C)(C)c3cncc(NS(=O)(=O)C4CC4)n3)cc2)n1 [Example P196] | +++ (>60 fold (+++)) | 
100 to 1000 nM | CCOc1cncc(-c2ccc(NC(=O)C(C)(C)c3ccnc(NS(=O)(=O)CC)n3)cc2)n1 [Example P74] | ++ (>30-60 fold (++)) | 
≤ 100 nM | CCOc1cncc(-c2ccc(NC(=O)C3(c4ccnc(NS(=O)(=O)C5CC5)n4)CCCC3)cc2)n1 [Example P2, 1-(2-(Cyclopropanesulfonamido)pyrimidin-4-yl)-N-(4-(6-ethoxypyrazin-2-yl)phenyl)cyclopentanecarboxamide] | +++ (>60 fold (+++)) | 
≤ 100 nM | CCOc1cncc(-c2ccc(NC(=O)C(CC)c3ccnc(NS(=O)(=O)C4CC4)n3)c(C)c2)n1 (stereo not shown) [Example P161] | + (2-30 fold (+)) | 
100 to 1000 nM | O=C(Cc1ccnc(NS(=O)(=O)C2CC2)n1)Nc1ccc(-c2cccnc2)cc1 [Example P16] | ++ (>30-60 fold (++)) | 
≤ 100 nM | CCOc1cncc(-c2ccc(NC(=O)C3(c4ccnc(NS(=O)(=O)C5CC5)n4)CCOCC3)nc2)n1 [Example P115, 4-(2-(Cyclopropanesulfonamido)pyrimidin-4-yl)-N-(5-(6-ethoxypyrazin-2-yl)pyridin-2-yl)tetrahydro-2H-pyran-4-carboxamide] | +++ (>60 fold (+++)) | 
≤ 100 nM | CCOc1cncc(-c2ccc(NC(=O)C(C)(C)c3ccnc(NS(=O)(=O)C4CC4)n3)c(C#N)c2)n1 [Example P34] | + (2-30 fold (+)) | 
≤ 100 nM | CC(C)Oc1cncc(-c2ccc(NC(=O)Cc3ccnc(NS(=O)(=O)C4CC4)n3)cc2)n1 [Example P21] | ++ (>30-60 fold (++)) | 
≤ 100 nM | CCOc1cncc(-c2ccc(NC(=O)C3(c4ccnc(NS(=O)(=O)C5CC5)n4)CC3)cc2)n1 [Example P83] | +++ (>60 fold (+++)) | 
≤ 100 nM | CCOc1cncc(-c2ccc(NC(=O)C(C)(C)c3cncc(NS(=O)(=O)C4CC4)n3)nc2)n1 [Example P195] | +++ (>60 fold (+++)) | 
≤ 100 nM | CCC(C(=O)Nc1ccc(-c2cncc(OC)n2)cn1)c1ccnc(NS(=O)(=O)C2CC2)n1 (stereo not shown) [Example P159] | +++ (>60 fold (+++)) | 
 | CCOc1cncc(-c2ccc(NC(=O)C3(c4ccnc(NS(=O)(=O)CC#N)n4)CCOCC3)nc2)n1 [Example P287, 4-(2-((cyanomethyl)sulfonamido)pyrimidin-4-yl)-N-(5-(6-ethoxypyrazin-2-yl)pyridin-2-yl)tetrahydro-2H-pyran-4-carboxamide] |  | IC50 (human CTPS1; Table 25, compounds where R1 is substituted by CN): ≤ 100 nM; CTPS1 (Selectivity data) (human CTPS1 versus CTPS2; Table 28, compounds where R1 is substituted by CN): +++ (>60 fold (+++))
